Measurements reported in patent US6306822A, “Phosphopeptides and methods of treating bone diseases” (Big Bear Bio, Inc., priority 1998, dated 2001).

Tests used:
ovariectomized rats = assay: Ovariectomized rat osteoporosis model, femur bone mineral content by DEXA; type: in vivo, Harlan-Sprague-Dawley rats; settings: Day 45, femur, OVX rats; compared with sham (positive) and OVX saline (negative) controls; doses and routes per b114 table
Protocol: Ovariectomized rats were chosen for the efficacy study of O-phosphoserine containing polypeptides. Ovaries were surgically resected from young female Harlan-Sprague-Dawley rats. Sham-operated rats were also prepared to use as positive controls.
After 7 days acclimation, the ovariectomized (OVX) rats were randomly divided into different treatment groups (6 animals per each group). Six sham-operated rats were assigned to the positive control group. Each group was fed a normal rat diet throughout the test period but received different treatments as summarized below: […]
The test samples four groups 3, 4, 5, and 6 were dissolved in saline and administered at once. Total volume of the sample solution was 1 ml and 0.1 ml per animal for oral and parenteral administration, respectively. Oral preparations were administered once a day and injection (s.c.) was every three days.
The group receiving the highest amount of oral Pse (group 3) was used to compare the efficacy of monomeric Pse versus Pse contained in a polypeptide.
On Days 0, 45, and 90 of the treatment, the femurs of most of the participating animals were subject to DEXA (dual energy X-ray absorptiometry) measurement, a typical method by which to study the status of bone growth. The animals were anesthetized and fixed on the bed when receiving the DEXA scan. […]

[1] = tested on: bone formation and resorption; assay: In vitro or ex vivo bone formation and resorption assay systems; settings: typical in vitro or ex vivo bone formation and resorption assay systems
Excerpt: The mechanism of action of these polypeptides is not completely understood. […] These peptides may increase to bone formation by attracting calcium which is solubilized in the biological fluids (serum, bone marrow, and so on, etc.). In addition, these peptides may have an effect on the formation or cross-linking of bone matrix proteins, by forming hydroxyapatite on or between such matrix proteins.

For `N[C@@H](COP(=O)(O)O)C(=O)O` [Pse, O-phosphoserine], the “bone mineral content (BMC) measured by DEXA” value (ovariectomized rats) was “close to that of the negative control” and the “biological effect on bone” value [1] was “neither the O-phosphoserine-containingpolypeptides nor O-phosphoserine monomer had any biological effect”.
